Assay results published in patent US20130298921A1, “INHALER FOR SMOKING CESSATION” (Rock Creek Pharmaceuticals, Inc., priority 2011, published 2013).
pEC50: −log10 of the molar value. Where two headings read alike, the source gives them in different places.

How the values were obtained:
[1] = test system: nicotine self-administration in rhesus monkeys; assay: nicotine self-administration in nonhuman primate model (second-order schedule, nicotine- and food-maintained responding); format: in vivo, rhesus monkeys (Macaca Mulatta); conditions: for food-maintained responding (change with increasing anatabine doses): anatabine 0.18-3.2 mg/kg IM; for nicotine self-administration: single doses of anatabine 0.18-3.2 mg/kg IM, nicotine training dose 0.01 mg/kg/inj (base)
Source text: Food was available during three 1-hour sessions each day (7 AM, 3 PM and 7 PM).
Food pellets were limited to 25 per session or 100 per day.
Nicotine doses are expressed as the base.

[2] = test system: Frontal cortex (rat frontal homogenates); assay: binding relative to nicotine in rat frontal homogenates; conditions: reference set to 1.0
Source text: (§1) This example describes a study conducted on anatabine along with other common nicotinic alkaloids in rat frontal and hippocampal homogenates.

α3/β4 nAChR channel = biological target: T1, α3/β4 nAChR channel (Homo sapiens, UniProt P30926+P32297); assay: Fluo-8 calcium FLIPR assay, cloned nAChR channels in mammalian cells; format: cell-based
T1 construct: expressed in transfected cells
T1 sequence (P32297 32-505): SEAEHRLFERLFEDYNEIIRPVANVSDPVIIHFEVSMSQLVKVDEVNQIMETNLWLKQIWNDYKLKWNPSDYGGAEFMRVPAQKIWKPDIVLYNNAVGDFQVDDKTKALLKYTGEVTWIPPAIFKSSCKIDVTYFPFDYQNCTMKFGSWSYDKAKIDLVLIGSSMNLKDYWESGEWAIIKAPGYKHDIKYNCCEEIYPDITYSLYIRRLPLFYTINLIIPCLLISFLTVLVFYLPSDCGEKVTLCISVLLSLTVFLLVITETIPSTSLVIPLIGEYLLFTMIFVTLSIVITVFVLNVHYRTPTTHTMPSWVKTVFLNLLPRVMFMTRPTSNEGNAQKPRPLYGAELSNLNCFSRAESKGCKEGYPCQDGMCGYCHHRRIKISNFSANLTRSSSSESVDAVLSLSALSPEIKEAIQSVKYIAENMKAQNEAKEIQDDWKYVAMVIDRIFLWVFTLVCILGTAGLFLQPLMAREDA
T1 sequence (P30926 22-498): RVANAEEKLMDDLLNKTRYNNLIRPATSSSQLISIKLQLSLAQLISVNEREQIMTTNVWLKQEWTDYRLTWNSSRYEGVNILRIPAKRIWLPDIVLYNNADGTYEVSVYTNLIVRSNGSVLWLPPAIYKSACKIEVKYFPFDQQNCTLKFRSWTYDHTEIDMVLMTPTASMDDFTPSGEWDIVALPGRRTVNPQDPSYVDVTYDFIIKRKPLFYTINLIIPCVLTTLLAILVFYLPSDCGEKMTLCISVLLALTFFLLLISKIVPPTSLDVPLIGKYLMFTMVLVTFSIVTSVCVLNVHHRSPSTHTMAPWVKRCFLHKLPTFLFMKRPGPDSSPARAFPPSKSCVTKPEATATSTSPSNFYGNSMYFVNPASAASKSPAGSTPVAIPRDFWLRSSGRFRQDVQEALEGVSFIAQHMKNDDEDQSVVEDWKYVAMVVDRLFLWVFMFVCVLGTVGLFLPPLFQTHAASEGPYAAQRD

α7 nAChR channel = biological target: T2, α7 nAChR channel (Homo sapiens, UniProt P36544); assay: as above; format: cell-based; conditions: for agonist character / maximum level of activation: agonist assay
T2 construct: expressed in transfected cells
T2 sequence (P36544 23-502): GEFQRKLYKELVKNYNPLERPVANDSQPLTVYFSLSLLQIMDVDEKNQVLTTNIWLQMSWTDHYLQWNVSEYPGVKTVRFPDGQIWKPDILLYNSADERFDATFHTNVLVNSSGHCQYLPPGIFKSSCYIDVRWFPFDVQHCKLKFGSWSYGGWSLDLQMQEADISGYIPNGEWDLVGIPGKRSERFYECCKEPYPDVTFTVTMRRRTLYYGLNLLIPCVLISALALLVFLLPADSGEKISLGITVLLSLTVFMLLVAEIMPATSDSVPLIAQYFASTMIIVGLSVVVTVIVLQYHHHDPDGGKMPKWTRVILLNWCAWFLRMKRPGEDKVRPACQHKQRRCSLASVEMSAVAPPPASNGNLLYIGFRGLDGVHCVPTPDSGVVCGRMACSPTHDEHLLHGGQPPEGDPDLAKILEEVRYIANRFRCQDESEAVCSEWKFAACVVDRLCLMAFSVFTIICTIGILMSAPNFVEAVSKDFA

[3] = test system: Hippocampus (rat hippocampal homogenates); assay: binding relative to nicotine in rat hippocampal homogenates; conditions: reference set to 1.0
Source text: as §1

[4] = test system: precipitated nicotine withdrawal; assay: precipitated nicotine withdrawal; format: in vivo, rodents; conditions: anatabine administration
[5] = test system: rodents trained to self-administer nicotine; assay: reward in rodents trained to self-administer nicotine; format: in vivo
[6] = test system: nicotine self-administration by rats; assay: nicotine self-administration by rats; format: in vivo; conditions: anatabine 1.8 and 3.2 mg/kg IP; peak reinforcing nicotine doses 0.003 and 0.01 mg/kg/inj; P<0.05-0.001; FIG. 6
α4/β2 nAChR channel = biological target: T3, α4/β2 nAChR channel (Homo sapiens, UniProt P17787+P43681); assay: Fluo-8 calcium FLIPR assay, cloned nAChR channels in mammalian cells; format: cell-based
T3 construct: expressed in transfected cells
T3 sequence (P43681 29-627 limits assumed): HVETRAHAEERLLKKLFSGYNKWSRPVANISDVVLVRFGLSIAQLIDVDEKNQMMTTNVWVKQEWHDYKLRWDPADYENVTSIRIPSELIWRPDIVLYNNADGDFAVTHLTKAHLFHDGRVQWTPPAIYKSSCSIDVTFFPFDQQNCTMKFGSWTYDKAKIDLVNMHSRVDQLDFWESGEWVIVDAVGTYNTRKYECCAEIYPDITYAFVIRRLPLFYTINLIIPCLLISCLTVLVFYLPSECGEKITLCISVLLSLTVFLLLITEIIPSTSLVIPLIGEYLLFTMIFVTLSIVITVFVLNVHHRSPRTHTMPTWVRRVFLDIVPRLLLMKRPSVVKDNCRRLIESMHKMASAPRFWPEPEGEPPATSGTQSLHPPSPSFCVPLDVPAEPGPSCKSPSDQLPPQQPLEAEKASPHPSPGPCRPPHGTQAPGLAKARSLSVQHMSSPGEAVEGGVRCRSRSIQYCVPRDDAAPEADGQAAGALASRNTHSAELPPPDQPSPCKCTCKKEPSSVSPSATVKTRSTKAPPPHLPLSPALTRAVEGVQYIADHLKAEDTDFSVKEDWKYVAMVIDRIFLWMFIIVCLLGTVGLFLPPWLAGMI
T3 sequence (P17787 26-502): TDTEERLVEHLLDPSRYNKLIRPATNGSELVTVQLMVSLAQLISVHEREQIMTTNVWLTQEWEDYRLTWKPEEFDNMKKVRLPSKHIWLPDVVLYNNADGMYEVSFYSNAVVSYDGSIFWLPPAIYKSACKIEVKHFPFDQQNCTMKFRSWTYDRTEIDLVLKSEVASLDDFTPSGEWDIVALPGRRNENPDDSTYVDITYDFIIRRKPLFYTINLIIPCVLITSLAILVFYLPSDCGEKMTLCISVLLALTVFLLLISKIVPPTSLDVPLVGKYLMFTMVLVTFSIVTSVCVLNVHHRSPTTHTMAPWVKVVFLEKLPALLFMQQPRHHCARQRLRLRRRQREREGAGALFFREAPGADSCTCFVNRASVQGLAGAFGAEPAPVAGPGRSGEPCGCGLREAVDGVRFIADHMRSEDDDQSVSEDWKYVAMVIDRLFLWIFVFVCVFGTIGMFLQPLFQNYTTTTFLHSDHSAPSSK

[7] = test system: nicotine self-administration by rats; conditions: anatabine 1.8-5.6 mg/kg, Caine et al., 2013, cited from earlier work
[8] = antagonist and positive allosteric modulator modes

CN1CCCC1c1cccnc1 (single isomer, unassigned) [Nicotine, nicotine, reference compound]
food-maintained responding with increasing doses of nicotine ([1]; nicotine 0.001-0.1 mg/kg/inj): did not change | peak of the nicotine dose-effect curve ([1]; nicotine 0.001-0.1 mg/kg/inj, 7 monkeys): 0.0032 mg/kg/inj | Nicotine Binding Constant [2]: 1.0 | agonist character (α3/β4 nAChR channel; agonist assay): full agonist | maximal response of the channel compared with ACh (α3/β4 nAChR channel; agonist assay): approached that of ACh | agonist character (α7 nAChR channel): full, potent agonists | maximum level of activation (α7 nAChR channel): also similar (and similar to ACh) | Nicotine Binding Constant [3]: 1.0

C1=CCC(c2cccnc2)NC1 (racemic) [Anatabine, anatabine]
reversal of precipitated nicotine withdrawal [4]: does not reverse precipitated nicotine withdrawal | effect on nicotine dose-effect curve ([1]; anatabine 0.32 mg/kg, data for two monkeys): shifts the peak of the dose-effect curve to the right | effect on nicotine dose-effect curve ([1]; anatabine 1.0 mg/kg): flattened the dose-effect curve | food-maintained responding (change with increasing anatabine doses) [1]: no significant effects | food-maintained responding (change with increasing anatabine doses) ([1]; listed as anatabine): not statistically significant | decreases in nicotine-maintained responding versus baseline ([1]; anatabine doses of 1.8 and 3.2 mg/kg IM, P<0.005-0.02): significantly different from baseline | systematic behavioral assessments (sedation or agitation) ([1]; following each treatment session): no evidence of sedation or agitation | nicotine self-administration [1]: dose-dependently reduced | nicotine self-administration ([1]; listed as anatabine): dose-dependently decreased | pEC50 (α3/β4 nAChR channel; agonist assay): 4.84 | agonist character (α3/β4 nAChR channel; agonist assay): partial agonist | antagonist or PAM effects (α3/β4 nAChR channel; [8]): no antagonist or PAM effects | rewarding effect [5]: do not find anatabine to be rewarding | nicotine-maintained responding [6]: significantly reduced | agonist character (α4/β2 nAChR channel; agonist assay): full agonist | antagonist or PAM effects (α4/β2 nAChR channel; [8]): no antagonist or PAM effects | agonist character (α7 nAChR channel): full, potent agonists | maximum level of activation (α7 nAChR channel): also similar (and similar to ACh) | antagonist or PAM effects (α7 nAChR channel; [8]): no antagonist or PAM effects | effect on nicotine dose-effect curve [7]: flattened the nicotine dose-effect curve | nicotine-maintained responding ([7]; nicotine 0.003 and 0.01 mg/kg/inj): significantly reduced
